Counter-ions that a name gives are not always drawn. Like-named read-outs stand apart in the source and are kept apart here.
How the values were obtained:
Format in all cases: biochemical
[1] = target: T1, recombinant human DAO (diamine oxidase) (Homo sapiens, UniProt P19801); assay: Activity on recombinant human DAO, Amplex Red method, 1 mM putrescine substrate; details: recombinant human DAO, read-out: Inhibitory Activity (IC50, nM) DAO
T1 construct: purchased R&D systems
T1 sequence (P19801 20-751): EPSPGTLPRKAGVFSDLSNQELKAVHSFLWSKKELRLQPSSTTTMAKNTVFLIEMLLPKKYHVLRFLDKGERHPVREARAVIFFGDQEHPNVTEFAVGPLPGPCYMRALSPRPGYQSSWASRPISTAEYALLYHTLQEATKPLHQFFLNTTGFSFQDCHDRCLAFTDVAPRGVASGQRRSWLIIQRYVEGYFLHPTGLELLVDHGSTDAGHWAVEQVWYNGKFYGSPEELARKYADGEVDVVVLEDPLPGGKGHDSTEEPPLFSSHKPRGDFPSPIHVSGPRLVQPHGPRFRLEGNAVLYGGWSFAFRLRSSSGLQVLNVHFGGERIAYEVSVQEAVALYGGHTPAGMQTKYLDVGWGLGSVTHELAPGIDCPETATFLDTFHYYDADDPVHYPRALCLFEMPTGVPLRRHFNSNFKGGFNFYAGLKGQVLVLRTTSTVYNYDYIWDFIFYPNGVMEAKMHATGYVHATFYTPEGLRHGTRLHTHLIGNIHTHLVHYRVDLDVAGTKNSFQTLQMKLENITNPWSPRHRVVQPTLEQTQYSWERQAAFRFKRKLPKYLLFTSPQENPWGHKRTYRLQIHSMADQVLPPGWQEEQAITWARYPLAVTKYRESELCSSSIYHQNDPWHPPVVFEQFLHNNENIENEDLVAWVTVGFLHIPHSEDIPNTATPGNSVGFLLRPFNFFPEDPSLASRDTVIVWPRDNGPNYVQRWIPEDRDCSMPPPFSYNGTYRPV
Outline: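 Inhibition of recombinant human DAO (diamine oxidase, R&D systems) was assessed with the Amplex Red Hydrogen Peroxide Assay Kit. Hydrogen peroxide produced from 1 mM putrescine was detected through an HRP-coupled reaction that converts Amplex Red into fluorescent resorufin, read at 544 nm excitation and 590 nm emission. IC50 values came from four-parameter logistic fits in GraphPad Prism.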

recombinant human VAP-1 = target: T2, recombinant human VAP-1 (Homo sapiens, UniProt Q16853); assay: Activity on recombinant human VAP-1, Amplex Red HRP-coupled hydrogen peroxide assay, benzylamine substrate; details: recombinant human VAP-1, benzylamine substrate, read-out: Inhibitory Activity (IC50, nM) human VAP-1
T2 construct: purchased R&D systems
T2 sequence (Q16853 1-763): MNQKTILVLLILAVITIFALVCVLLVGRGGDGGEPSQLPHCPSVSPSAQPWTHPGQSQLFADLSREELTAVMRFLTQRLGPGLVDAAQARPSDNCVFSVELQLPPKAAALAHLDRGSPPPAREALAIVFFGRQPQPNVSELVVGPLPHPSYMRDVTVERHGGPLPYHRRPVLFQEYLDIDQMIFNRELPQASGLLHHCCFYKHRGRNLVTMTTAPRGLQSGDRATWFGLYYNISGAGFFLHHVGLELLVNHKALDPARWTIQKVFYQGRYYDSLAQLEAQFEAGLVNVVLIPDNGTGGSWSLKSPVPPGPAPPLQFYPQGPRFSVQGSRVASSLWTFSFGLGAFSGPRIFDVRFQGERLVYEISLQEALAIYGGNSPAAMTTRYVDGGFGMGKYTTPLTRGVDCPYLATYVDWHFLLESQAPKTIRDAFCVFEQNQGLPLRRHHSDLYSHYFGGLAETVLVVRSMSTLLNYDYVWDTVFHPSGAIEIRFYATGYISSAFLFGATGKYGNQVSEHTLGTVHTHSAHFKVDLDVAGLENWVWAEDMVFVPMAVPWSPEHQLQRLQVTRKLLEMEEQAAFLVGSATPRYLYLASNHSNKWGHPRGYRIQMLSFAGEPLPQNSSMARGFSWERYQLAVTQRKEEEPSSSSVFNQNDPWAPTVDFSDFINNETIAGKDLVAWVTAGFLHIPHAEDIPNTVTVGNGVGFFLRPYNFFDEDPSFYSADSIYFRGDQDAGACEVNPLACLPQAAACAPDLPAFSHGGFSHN
Outline: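 Enzyme in 50 mM sodium phosphate pH 7.4 preincubated with compound 30 min at 37 °C, then 1 mM benzylamine, 200 µM Amplex Red and 1 U/mL HRP added. H2O2-derived resorufin fluorescence (ex 544/em 590 nm) followed over 1–2 h; signal-rate decrease versus DMSO control, 8-point curve, four-parameter logistic IC50.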

[2] = target: T3, recombinant human MAO-B (monoamine oxidase-B) (Homo sapiens, UniProt P27338); assay: Activity on recombinant human MAO-B, Amplex Red method, 1 mM benzylamine substrate; details: read-out: Inhibitory Activity (IC50, nM) MAO-B
T3 construct: purchased Sigma-Aldrich
T3 sequence (P27338 1-520): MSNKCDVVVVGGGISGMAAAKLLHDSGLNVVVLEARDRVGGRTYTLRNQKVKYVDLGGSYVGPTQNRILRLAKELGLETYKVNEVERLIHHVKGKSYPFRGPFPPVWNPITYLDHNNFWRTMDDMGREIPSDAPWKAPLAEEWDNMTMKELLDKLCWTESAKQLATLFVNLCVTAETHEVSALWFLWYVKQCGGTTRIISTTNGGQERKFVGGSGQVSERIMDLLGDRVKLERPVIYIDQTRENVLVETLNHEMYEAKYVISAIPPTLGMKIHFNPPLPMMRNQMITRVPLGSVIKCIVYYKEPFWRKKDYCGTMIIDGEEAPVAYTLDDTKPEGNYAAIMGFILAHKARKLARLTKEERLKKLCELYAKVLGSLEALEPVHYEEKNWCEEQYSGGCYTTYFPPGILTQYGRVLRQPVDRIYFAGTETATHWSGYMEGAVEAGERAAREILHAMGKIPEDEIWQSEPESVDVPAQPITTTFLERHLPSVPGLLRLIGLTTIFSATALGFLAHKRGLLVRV
Outline: (§1)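 Enzyme preincubated with compound 30 min at 37 °C in 50 mM sodium phosphate pH 7.4, final DMSO below 1%. Substrate was 0.5 mM tyramine for MAO-A and 1 mM benzylamine for MAO-B, with 200 uM Amplex Red and 1 U/mL HRP. H2O2-coupled resorufin fluorescence (ex 544/em 590) followed over 1–2 h; 8-point 4-parameter IC50.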

[3] = target: T4, recombinant human MAO-A (monoamine oxidase-A) (Homo sapiens, UniProt P21397); assay: Activity on recombinant human MAO-A, Amplex Red method, 0.5 mM tyramine substrate; details: read-out: Inhibitory Activity (IC50, nM) MAO-A
T4 construct: purchased Sigma-Aldrich
T4 sequence (P21397 1-527): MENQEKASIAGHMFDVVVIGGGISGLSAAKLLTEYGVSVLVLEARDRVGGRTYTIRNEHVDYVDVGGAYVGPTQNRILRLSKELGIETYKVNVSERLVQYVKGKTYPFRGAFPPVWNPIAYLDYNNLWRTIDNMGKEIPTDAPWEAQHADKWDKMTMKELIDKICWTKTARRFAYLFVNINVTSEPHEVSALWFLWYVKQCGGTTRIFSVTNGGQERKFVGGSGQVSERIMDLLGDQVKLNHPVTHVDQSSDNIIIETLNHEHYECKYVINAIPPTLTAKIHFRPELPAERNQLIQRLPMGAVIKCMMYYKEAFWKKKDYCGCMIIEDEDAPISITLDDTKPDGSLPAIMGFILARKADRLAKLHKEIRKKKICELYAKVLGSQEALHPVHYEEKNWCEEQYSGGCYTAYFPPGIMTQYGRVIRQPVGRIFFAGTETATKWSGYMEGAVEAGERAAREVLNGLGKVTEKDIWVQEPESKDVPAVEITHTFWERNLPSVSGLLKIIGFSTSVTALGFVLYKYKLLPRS
Outline: as §1

[4] = 1 mM putrescine, * = between 10 and 100 nM, ** = between 300 and 1000 nM

Compound Cc1ccc(-c2cccc(-n3cnn(C/C(=C/F)CN)c3=O)c2)c2cccnc12 [Example 105, 2-[(2E)-2-(aminomethyl)-3-fluoroprop-2-en-1-yl]-4-[3-(8-methylquinolin-5-yl)phenyl]-2,4-dihydro-3H-1,2,4-triazol-3-one hydrochloride] has an IC50 [1, 4] of 180 nM, an IC50 (recombinant human VAP-1; 30 min preincubation at 37° C.) of 0.83 nM and an IC50 ([2]; 1 mM benzylamine) of 9640 nM. The IC50 ([3]; 0.5 mM tyramine) was 65200 nM.

Compound NC/C(=C\F)Cn1ncn(-c2cccc(-c3ccc4sc(N)nc4c3)c2)c1=O [Example 99, 4-[3-(2-amino-1,3-benzothiazol-5-yl)phenyl]-2-[(2E)-2-(aminomethyl)-3-fluoroprop-2-en-1-yl]-2,4-dihydro-3H-1,2,4-triazol-3-one hydrochloride] has an IC50 [1, 4] of under 100 nM, an IC50 (recombinant human VAP-1; 30 min preincubation at 37° C.) of 0.82 nM and an IC50 ([2]; 1 mM benzylamine) of 6420 nM. The IC50 ([3]; 0.5 mM tyramine) was over 100000 nM.

COc1ccc(C#Cc2cccc(-n3cnn(C/C(=C/F)CN)c3=O)n2)cn1 [Example 247, 2-[(2E)-2-(aminomethyl)-3-fluoroprop-2-en-1-yl]-4-{6-[(6-methoxypyridin-3-yl)ethynyl]pyridin-2-yl}-2,4-dihydro-3H-1,2,4-triazol-3-one] gave an IC50 ([1]; 1 mM putrescine substrate) of 14 nM, an IC50 (recombinant human VAP-1) of 0.3 nM and an IC50 ([2]; 1 mM benzylamine substrate) of 4300 nM. It also gave an IC50 ([3]; 0.5 mM tyramine substrate) of over 100000 nM.

Cc1cc(-n2cnn(C/C(=C/F)CN)c2=O)ncc1Br [Example 34, 2-[(2E)-2-(aminomethyl)-3-fluoroprop-2-en-1-yl]-4-(5-bromo-4-methylpyridin-2-yl)-2,4-dihydro-3H-1,2,4-triazol-3-one hydrochloride] was tested, and the IC50 [1, 4] was 13 nM, the IC50 (recombinant human VAP-1; 30 min preincubation at 37° C.) was 0.6 nM and the IC50 ([2]; 1 mM benzylamine) was 363 nM. For the same compound, the IC50 ([3]; 0.5 mM tyramine) was 6100 nM.

Compound NC/C(=C\F)Cn1ncn(-c2ccc(OCc3ccccc3)cc2)c1=O [Example 8, 2-[(2E)-2-(aminomethyl)-3-fluoroprop-2-en-1-yl]-4-[4-(benzyloxy)phenyl]-2,4-dihydro-3H-1,2,4-triazol-3-one hydrochloride] has an IC50 [1, 4] of 38 nM, an IC50 (recombinant human VAP-1; 30 min preincubation at 37° C.) of 0.6 nM and an IC50 ([2]; 1 mM benzylamine) of 10 nM. The IC50 ([3]; 0.5 mM tyramine) was 54000 nM.

NC/C(=C\F)Cn1ncn(-c2cnc(Br)cn2)c1=O [Example 38, 2-[(2E)-2-(aminomethyl)-3-fluoroprop-2-en-1-yl]-4-(5-bromopyrazin-2-yl)-2,4-dihydro-3H-1,2,4-triazol-3-one] gave an IC50 [1, 4] of under 100 nM, an IC50 (recombinant human VAP-1; 30 min preincubation at 37° C.) of 4.4 nM and an IC50 ([2]; 1 mM benzylamine) of 112 nM. It also gave an IC50 ([3]; 0.5 mM tyramine) of 19600 nM.

Cc1c(-c2ccc(-c3ccon3)cc2)cccc1-n1cnn(C/C(=C/F)CN)c1=O [Example 108, 2-[(2E)-2-(aminomethyl)-3-fluoroprop-2-en-1-yl]-4-[2-methyl-4′-(1,2-oxazol-3-yl)biphenyl-3-yl]-2,4-dihydro-3H-1,2,4-triazol-3-one] showed an IC50 [1, 4] of 3500 nM, an IC50 (recombinant human VAP-1; 30 min preincubation at 37° C.) of 2.2 nM and an IC50 ([2]; 1 mM benzylamine) of over 10000 nM. For the same compound, the IC50 ([3]; 0.5 mM tyramine) was over 100000 nM.

In the case of NC/C(=C/F)Cn1ncn(-c2cccc(-c3ccc4c(c3)OCO4)c2)c1=O [Example 92, 2-[(2Z)-2-(aminomethyl)-3-fluoroprop-2-en-1-yl]-4-[3-(1,3-benzodioxol-5-yl)phenyl]-2,4-dihydro-3H-1,2,4-triazol-3-one hydrochloride], the IC50 [1, 4] is reported as 41 nM, the IC50 (recombinant human VAP-1; 30 min preincubation at 37° C.) is reported as 1.1 nM and the IC50 ([2]; 1 mM benzylamine) is reported as 1350 nM. The IC50 ([3]; 0.5 mM tyramine) was 9.69 nM.

Work on NC/C(=C\F)Cn1ncn(-c2cnc(-c3ccc4nonc4c3)cn2)c1=O [Example 222, 2-[(2E)-2-(aminomethyl)-3-fluoroprop-2-en-1-yl]-4-[5-(2,1,3-benzooxadiazol-5-yl)pyrazin-2-yl]-2,4-dihydro-3H-1,2,4-triazol-3-one] yielded an IC50 ([1]; 1 mM putrescine substrate) of under 100 nM, an IC50 (recombinant human VAP-1) of 0.94 nM and an IC50 ([2]; 1 mM benzylamine substrate) of 22 nM. It also gave an IC50 ([3]; 0.5 mM tyramine substrate) of 770 nM.

Cc1ccc(-c2cc(C)c3c(c2)CCC(=O)N3)nc1-n1cnn(C/C(=C/F)CN)c1=O [Example 215, 6-(6-{1-[(2E)-2-(aminomethyl)-3-fluoroprop-2-en-1-yl]-5-oxo-1,5-dihydro-4H-1,2,4-triazol-4-yl}-5-methylpyridin-2-yl)-8-methyl-3,4-dihydroquinolin-2(1H)-one hydrochloride] was tested, and the IC50 ([1]; 1 mM putrescine substrate) was 290 nM, the IC50 (recombinant human VAP-1) was 14 nM and the IC50 ([2]; 1 mM benzylamine substrate) was 3500 nM. It also gave an IC50 ([3]; 0.5 mM tyramine substrate) of 96000 nM.

In the case of NC/C(=C\F)Cn1ncn(-c2ccc(F)cc2)c1=O [Example 6, 2-[(2E)-2-(aminomethyl)-3-fluoroprop-2-en-1-yl]-4-(4-fluorophenyl)-2,4-dihydro-3H-1,2,4-triazol-3-one hydrochloride], the IC50 [1, 4] is reported as 1100 nM, the IC50 (recombinant human VAP-1; 30 min preincubation at 37° C.) is reported as 3.7 nM and the IC50 ([2]; 1 mM benzylamine) is reported as over 10000 nM. For the same compound, the IC50 ([3]; 0.5 mM tyramine) was over 100000 nM.

NC/C(=C\F)Cn1ncn(-c2cnc(-c3ccc4cn[nH]c4c3)cn2)c1=O [Example 223, 2-[(2E)-2-(aminomethyl)-3-fluoroprop-2-en-1-yl]-4-[5-(1H-indazol-6-yl)pyrazin-2-yl]-2,4-dihydro-3H-1,2,4-triazol-3-one] showed an IC50 ([1]; 1 mM putrescine substrate) of under 100 nM, an IC50 (recombinant human VAP-1) of 2.2 nM and an IC50 ([2]; 1 mM benzylamine substrate) of 10.5 nM. For the same compound, the IC50 ([3]; 0.5 mM tyramine substrate) was 21700 nM.

From US11492335B2, “Aryl or heteroaryl triazolone derivatives or salts thereof, or pharmaceutical compositions comprising the same” (YUHAN CORPORATION, priority 2018, dated 2022)
